# According to PubChem BioAssay AID1996:
# Settings: buffer; pH 7.4; 200.0 µM
row,Compound,solubility kinetic
1,Cc1c(C(=O)NCCSCc2ccccc2)cccc1[N+](=O)[O-],46.6 µg/mL
2,Cc1cc(C)cc(NC(=O)CC2Oc3ccc(C)cc3NC2=O)c1 (stereo not given),1.6 µg/mL
3,O=C(CN1CCN(Cc2ccccc2)CC1)Nc1cccc(Cl)c1,> 51.6 µg/mL
4,CCCCOc1ccc(C(=O)NCC(=O)OCC(=O)c2c(N)n(C)c(=O)n(C)c2=O)cc1,10.9 µg/mL
5,COC(=O)c1nc2ccccn2c1F,> 29.1 µg/mL
6,CCCNC(=O)c1cc(-c2ccc3c(c2)OCO3)on1,2.9 µg/mL
7,CCC(CO)NCC#Cc1ccccc1.Cl (stereo not given),> 36 µg/mL
8,CCCCn1c(SCC(=O)Nc2cc(C)on2)nnc1-c1ccncc1,> 55.9 µg/mL
9,CC1(c2ccc(NC(=O)c3ccccc3F)cc2)CC1(Cl)Cl (stereo not given),< 0.7 µg/mL
10,Cc1c(C(=O)NC(=S)Nc2cccnc2)cccc1[N+](=O)[O-],0.9 µg/mL
11,Nc1nc(-c2cc(Cl)cc(Cl)c2OC(F)F)cs1,2.3 µg/mL
12,COc1ccc(C=O)cc1Oc1nc(Cl)ncc1F,32 µg/mL
13,CC(=O)Nc1ccc(S(=O)(=O)N2CCCC(C(=O)O)C2)cc1 (stereo not given),> 49 µg/mL
14,O=C(CSc1nccc(=O)[nH]1)Nc1cccc2ccccc12,> 46.7 µg/mL
15,CC(=O)c1ccc(S(=O)(=O)N2CCC3(CC2)OCCO3)cc1,> 48.8 µg/mL
16,Cc1csc(NC(=O)c2ccc(=O)[nH]c2)n1,> 35.3 µg/mL
17,CCOC(=O)c1sc(=S)n(-c2ccccc2)c1C,3.4 µg/mL
18,COc1ccc(OCC(=O)NS(=O)(=O)c2ccccc2)cc1,> 48.2 µg/mL
19,CC(C)(C)NCC(O)c1cc(Cl)c(N)c(Cl)c1.Cl (stereo not given),46.5 µg/mL
20,NCC(=O)CCC(=O)O,18.6 µg/mL
21,COc1c(S(=O)(=O)Nc2cccnc2)ccc(Cl)c1Cl,30.8 µg/mL
22,N/C(=N\OC(=O)CCCc1ccccc1)c1ccccc1,7.2 µg/mL
23,COc1cccc(S(=O)(=O)N2CCN(C(=O)c3ccco3)CC2)c1,51.3 µg/mL
24,COc1cc2cc(NC(C)=O)cc(NCc3ccccc3)c2cc1OC,4.2 µg/mL

row,Compound,solubility kinetic
1,O=C1N=c2ccccc2=C1c1sc(Nc2cccc(O)c2)nc1O,0.7 µg/mL
2,Cl.c1ccc2c(c1)CCCC2C1=NCCN1 (stereo not given),> 35.5 µg/mL
3,Cn1cccc1/C=C(\C#N)C(N)=S,28.1 µg/mL
4,CCN(CC)CCOC(=O)C(c1ccccc1)c1ccccc1.Cl,> 52.2 µg/mL
5,COc1cccc(OC)c1C(=O)NC(=O)Nc1c(C)cccc1C,5.2 µg/mL
6,Nc1nc(Cl)nc2c1ncn2[C@@H]1O[C@H](CO)[C@@H](O)[C@H]1O,> 45.3 µg/mL
7,CC(=O)N1Cc2ccccc2CC1C(=O)N1CCN(c2ccccc2)CC1 (stereo not given),43.5 µg/mL
8,O=C(NCCc1c[nH]c2ccccc12)C(=O)c1c[nH]c2ccccc12,4.2 µg/mL
9,COc1ccc(CCNC(=O)COC(=O)Cc2c[nH]c3ccccc23)cc1OC,47 µg/mL
10,CCN1CCN(CC(c2ccccc2)c2ccccc2)CC1,29.1 µg/mL
11,CCCCN1C(=O)N(c2ccccc2Cl)C(C)(O)CC1(C)C (stereo not given),47.6 µg/mL
12,CCS(=O)(=O)N1CCC(C(=O)Oc2ccc(C)c(C)c2)CC1,38.5 µg/mL
13,CCOC(=O)c1cnc(C(F)(F)F)nc1Oc1ccccc1,11.7 µg/mL
14,CC1CCCC(NC(=O)c2ccc(COc3ccccc3)o2)C1C (stereo not given),2.2 µg/mL
15,Cc1ccc(NC(=O)CS(=O)c2ccccc2N)c(C)c1 (stereo not given),> 45.4 µg/mL
16,CC(=O)Nc1ccc(NC(=O)Cn2ccc([N+](=O)[O-])n2)cc1,> 45.5 µg/mL
17,Cc1ccc(NC(=O)Nc2ccccc2)nc1,2.6 µg/mL
18,CN(C(=O)c1ccco1)c1nc(-c2ccccc2)cs1,< 0.3 µg/mL
19,Cc1cc(N2C(=O)Cc3ccccc3C2=O)ccc1C(C)C,35 µg/mL
20,Cc1cccc(N=C2NC(=O)/C(=C/c3cccnc3)S2)c1,2.7 µg/mL
21,Cc1ccc(C)c(NCC(=O)c2ccc(Cl)cc2)c1,2.2 µg/mL
22,O=C(Nc1ncc(Cc2cccc([N+](=O)[O-])c2)s1)c1ccco1,0.7 µg/mL
23,CCC1(C)Cc2c(sc3nc(SC)[nH]c(=S)c23)CO1 (stereo not given),8.9 µg/mL
24,Cc1cc(C(=O)COC(=O)Cc2ccc(Br)cc2)c(C)n1C,15.2 µg/mL

row,Compound,solubility kinetic
1,O=S(=O)(Nc1ccccc1N1CCCCC1)c1ccc(F)cc1,2.5 µg/mL
2,CCc1cc(=O)oc2c(C)c(OC(C)C(=O)N3CCC[C@@H]3C(=O)O)ccc12 (stereo not given in full),> 56 µg/mL
3,O=C(COc1ncnc2sccc12)Nc1ccc(F)cc1F,> 48.2 µg/mL
4,COc1ccc(CC(C)NC2CCCCCC2)cc1 (stereo not given),31 µg/mL
5,NS(=O)(=O)c1cccc(NC(=O)c2ccc(S(=O)(=O)N3CCCCCC3)cc2)c1,7.1 µg/mL
6,CCOc1ccc(NC(=O)NCc2cccn2C)cc1,9.2 µg/mL
7,CN(C)C(CNC(=O)c1ccc([N+](=O)[O-])cc1Cl)c1ccco1 (stereo not given),> 50.7 µg/mL
8,O=C(O)c1cc(-c2ccc3ccccc3c2)nc2ccc(F)cc12,> 47.6 µg/mL
9,COC(=O)c1ccc(COc2ccccc2/C=N/O)o1,> 41.3 µg/mL
10,COC(=O)CN(c1cccc(C)c1)S(=O)(=O)c1ccccc1,41.7 µg/mL
11,Cc1cccc(CCNCc2cc3cccc(C)c3[nH]c2=O)c1,45.9 µg/mL
12,CC(=C\c1ccccc1)/C=C1/SC(=S)N(CCCC(=O)O)C1=O,> 52.1 µg/mL
13,O=C(Oc1ccccc1)c1cccnc1Oc1ccccc1,20.7 µg/mL
14,CCc1ccc2[nH]c(=O)c(Cc3ccccc3)c(O)c2c1,> 41.9 µg/mL
15,CC1CCCC(NC(=O)Cn2c(Cl)nc3c2c(=O)n(C)c(=O)n3C)C1C (stereo not given),> 57.3 µg/mL
16,CC1=NOC(=O)/C1=C/c1ccc(O)c(Cl)c1,> 35.6 µg/mL
17,O=C(COc1ccc2c(c1)OCO2)NCc1cccs1,> 43.7 µg/mL
18,CCCCNC(=O)NC(C(N)=O)P(=O)(OCC)OCC (stereo not given),> 46.4 µg/mL
19,CCCCn1c(=S)[nH]c2ccc(N3CCOCC3)cc2c1=O,4.3 µg/mL
20,COc1ccc(CCNc2cc(C)nc(N)n2)cc1OC,> 43.3 µg/mL
21,Cc1sc2nc(-c3ccc(Br)cc3)oc(=O)c2c1C,< 0.7 µg/mL
22,Cc1cc(OCC(=O)OCC(=O)NCc2cccs2)ccc1Cl,14 µg/mL
23,CN(C)c1cccc2c(C#N)ccc(N(C)C)c12,< 0.2 µg/mL
24,O=c1[nH]c(/C=C\c2cccc(Cl)c2)nc(O)c1[N+](=O)[O-],> 44.1 µg/mL

row,Compound,solubility kinetic
1,COc1ccc(OC)c(NC(=O)c2cccnc2)c1,> 38.7 µg/mL
2,CCOP(=O)(CN(CC)C(=O)c1ccccc1Br)OCC,> 56.7 µg/mL
3,COCCn1c(N)c(Sc2ccc(Cl)cc2)c(=O)[nH]c1=O,47.4 µg/mL
4,O=S1(=O)CCN(Cc2ccc(F)cc2)CC1,> 36.5 µg/mL
5,CC(CCc1ccccc1)NC(=O)CC(C)c1ccccc1 (stereo not given),43.4 µg/mL
6,COc1ccc(-c2c(C#N)sc(C(N)=O)c2-c2ccc(OC)cc2)cc1,< 0.4 µg/mL
7,Cc1csc(NC(=O)CN2C(=O)COc3ccc(Cl)cc32)n1,2.1 µg/mL
8,COc1ccc(-n2c(=S)[nH]c3ccccc3c2=S)cc1,1.4 µg/mL
9,COc1ccccc1Cn1c(C)nc2ccccc21,37 µg/mL
10,CCC1CCC2(CC1)NC(=O)N(CC(=O)N1CCc3ccccc31)C2=O (stereo not given),3.4 µg/mL
11,CCc1ccc(N2C(=O)C3C4C=CC(CC4)C3C2=O)cc1 (stereo not given),14.3 µg/mL
12,COC(=O)c1ccc(COC(=O)CNC(=O)c2ccc(OC)cc2)cc1,17.3 µg/mL
13,Cc1ccccc1OCC(O)CN1CCCCC1.Cl (stereo not given),> 42.9 µg/mL
14,CC(C)c1ccc(NC2=CC(=O)CC(C)(C)C2)cc1,2.6 µg/mL
15,Nc1cc(=O)[nH]c(SCC(=O)Nc2ccc(N3CCOCC3)cc2)n1,> 54.2 µg/mL
16,Cl.OC(COCCC12CC3CC(CC(C3)C1)C2)CN1CCCC1 (stereo not given),42.3 µg/mL
17,O=C1NC(=O)C2(CCCCCCCCCCC2)N1,1.5 µg/mL
18,COc1ccc(OC)c(/C=C/C(=O)Nc2ccc(OC)nc2)c1,4.7 µg/mL
19,CCOC(=O)C1=C(N)Oc2cc(O)ccc2C1c1ccccc1 (stereo not given),< 0.7 µg/mL
20,Oc1nc(-c2ccc(Cl)cc2)n2ccncc12,> 36.9 µg/mL
21,O=C(CSC(=S)N1CCCC1)Nc1cc2c(cc1Br)OCCO2,< 0.4 µg/mL
22,COc1ccccc1N1CCN(C(=O)c2cc3ccccc3[nH]2)CC1,2.7 µg/mL
23,CCc1ccc(CNC(=O)C2CC(=O)N(C3CCCC3)C2)cc1 (stereo not given),> 47.2 µg/mL
24,Cc1ccc(NC(=O)CCc2ccc(S(=O)(=O)N3CCOCC3)cc2)c(O)c1,44.6 µg/mL

row,Compound,solubility kinetic
1,COc1ccc(Nc2ncnc3sc(-c4ccccc4)cc23)c(OC)c1,0.6 µg/mL
2,COc1ccc([N+](=O)[O-])c(OC)c1C(=O)NC(=O)Nc1c(C)cccc1C,0.9 µg/mL
3,CC(C)C(NS(=O)(=O)c1ccccc1)C(=O)N1CCCC1 (stereo not given),> 46.6 µg/mL
4,Cc1[nH]c2ccccc2c1C(O)CN1CCC2(CC1)OCCO2 (stereo not given),> 47.5 µg/mL
5,NC(=O)c1ccc(OCC(F)(F)F)nc1,31.1 µg/mL
6,Cn1c(SCC(=O)Nc2sccc2C(N)=O)nc2ccccc2c1=O,3.8 µg/mL
7,O=C1c2cccc3cc([N+](=O)[O-])cc(c23)C(=O)N1CC1CCCO1 (stereo not given),5.7 µg/mL
8,O=C(Cc1ccccc1[N+](=O)[O-])N1CCOCC1,> 37.5 µg/mL
9,O=S(=O)(c1ccc(=S)[nH]c1)N1CCCCC1,21.9 µg/mL
10,CC1Oc2ccccc2N(CC(=O)NCCN2CCOCC2)C1=O (stereo not given),> 50 µg/mL
11,O=C(CCNC(=O)c1ccc(Br)cc1)Nc1ccc(S(=O)(=O)N2CCOCC2)cc1,5.3 µg/mL
12,CCN1CCC(N(C)C2CCCCC2)CC1,24 µg/mL
13,COc1ccc(Cc2nc(-c3ccncc3)no2)cc1,35.5 µg/mL
14,Cc1ccc(NC(=O)C2CCCN2C(=O)Oc2ccccc2)c(C)c1 (stereo not given),> 50.8 µg/mL
15,CCOC(=O)c1cc2c(ccn2C)n1CC(=O)N(CC)CC,> 45.8 µg/mL
16,O=C(O)CSCC(=O)N(c1ccccc1)c1ccccc1,42.9 µg/mL
17,CSc1ncc(Cl)c(C(=O)Nc2ccccc2[N+](=O)[O-])n1,< 0.2 µg/mL
18,Cc1cc(C(=O)Nc2cccc(S(=O)(=O)N3CCOCC3)c2)c2ccccc2n1,13.1 µg/mL
19,Cc1ccc(C(=O)Nc2ccncc2)cc1[N+](=O)[O-],> 38.6 µg/mL
20,CC1CCCCN1C(=S)NCc1ccco1 (stereo not given),> 35.8 µg/mL
21,COc1ccccc1N1C(=O)C(=O)N(C)C1=O,> 35.1 µg/mL
22,Cc1ccc(-c2nc3ccccc3c(=O)n2O)cc1,24.1 µg/mL
23,CCN(CC)c1ncc(C#N)c(N)n1,25.6 µg/mL
24,O=C(Nc1ccc(F)cc1)c1cccnn1,> 32.6 µg/mL
